Data on six molecules can be found in US6287840A (Axys Pharmaceuticals, Inc., priority 1999, dated 2001).

pKi: −log10 of the molar value. Read-outs that look alike come from different tables or passages of the source.

Test [1] addresses cruzain, from T. cruzi (Trypanosoma cruzi, UniProt P25779). Briefly: Inhibition of cruzain, as for cathepsin L. The class given is biochemical. The conditions noted are these: for k/KI (kirr/KI): values without asterisk; for kobs /[I]* (approximate second-order inactivation constant): values marked *. The procedure, abridged: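 Run as for cathepsin L with 1 nM cruzain in 50 mM phosphate pH […], 2.5 mM DTT, 2.5 mM EDTA, 5 μM Z-Phe-Arg-AMC, at 25 °C, inhibitors 30-0.001 μM; fluorescence (ex 380/em 460 nm) followed continuously. kobs fitted from progress curves and kobs/[I] reported; selected compounds gave kirr, KI, kirr/KI, with KI corrected by (1+[S]/Km).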

The test system of test [2] is Trypanosoma cruzi amastigote infected macrophages. The test can be described thus: In vitro antiprotozoal activity, Trypanosoma cruzi. In kind it is cell-based. Here is the method:
(§1) In this table, the in vitro antiprotozoal activities of the indicated compounds were measured as percentage inhibition of Leishmania donovani amastigote infecteda mouse peritoneal macrophages, Trypanosoma cruzi amastigote infected macrophages, and Trypanosoma brucei extracellular bloodstream forms.

The target of test [3] is T1, Cloned cathepsin S (Homo sapiens, UniProt P25774).
T1 construct: made in house
T1 sequence (P25774 115-331): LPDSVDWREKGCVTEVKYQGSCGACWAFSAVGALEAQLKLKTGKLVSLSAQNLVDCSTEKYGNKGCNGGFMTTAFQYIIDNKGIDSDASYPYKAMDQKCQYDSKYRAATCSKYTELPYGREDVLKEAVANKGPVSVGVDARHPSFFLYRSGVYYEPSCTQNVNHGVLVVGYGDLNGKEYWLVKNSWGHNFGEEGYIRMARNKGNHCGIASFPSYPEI
The test can be described thus: Inhibition of cathepsin S, Z-Val-Val-Arg-AMC fluorescence progress curves. In kind it is biochemical. The note with it: for pKi: corrected for substrate; for k/KI (kirr/KI): values without asterisk; for k/KI (kirr/KI) / kobs /[I]* (approximate second-order inactivation constant): 25° C., pH 6.5; for kobs /[I]* (approximate second-order inactivation constant): values marked *. The procedure, abridged:
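Fluorescence (380 nm excitation, 460 nm emission) was followed after adding sub-nM enzyme to pH 6.5 phosphate buffer with DTT, EDTA, Triton, 10 μM Z-VVR-AMC and 30-0.001 μM inhibitor at 25 °C. Fitted kobs values gave apparent kobs/[I]; for some, double-reciprocal plots gave kirr, KI and kirr/KI, KI corrected by 1+[S]/Km.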

For test [4], the system named is Trypanosoma brucei extracellular bloodstream forms. Briefly: In vitro antiprotozoal activity, Trypanosoma brucei. In kind it is cell-based. Here is the method:
as §1

Test [5] deals with T2, Cathepsin B from human placenta (Homo sapiens, UniProt P07858).
T2 construct: Cathepsin B from human placenta, obtained from Sigma; purchased Sigma; host or cells: human placenta (tissue)
Briefly: Inhibition of cathepsin B, Z-Arg-Arg-AMC fluorescence progress curves. The class given is biochemical. The note with it: for k/KI (kirr/KI): values without asterisk. The procedure, abridged: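 Human placental enzyme (~10 nM) in 50 mM phosphate pH 6.2 with 2.5 mM DTT and 2.5 mM EDTA, 50 μM Z-Arg-Arg-AMC, inhibitors 30-0.001 μM, 25° C. AMC fluorescence (ex 380/em 460 nm) progress curves fitted for kobs; kobs/[I] reported, with kirr, KI and kirr/KI substrate-corrected for selected compounds.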

The test system of test [6] is human malarial parasite Plasmodium falciparum. The test can be described thus: In vitro protease activity of malarial parasite, substrate Z-Phe-Arg-AMC. The class given is biochemical. The note with it: read-out: P. falciparum IC50 (human). From the text: (§2) The following table summarizes the comparative IC50 values for selected cysteine protease inhibitors against the human malarial parasite Plasmodium falciparum and the mouse malarial parasite Plasmodium vinckei. The substrate used to measure in vitro protease activity was Z-Phe-Arg-AMC.

The subject of test [7] is mouse malarial parasite Plasmodium vinckei. Described as above. In kind it is biochemical. The note with it: read-out: P. vinckei IC50 (murine).
From the text: as §2

Test [8] has as its system T. cruzi. Briefly: T. cruzi infected irradiated J774 cells. The class given is cell-based. Further details: dose or concentration left out as unconfirmed. The note with it: thereafter without inhibitor; compounds listed in decreasing order of effectiveness. Here is the method: Irradiated J774 cells were infected with T. cruzi and simultaneously treated with […] of peptidyl vinyl derivatives for 5 days; thereafter without inhibitor. The following compounds were effective in decreasing order: Mu-Phe-ArgVSPh, Boc-Tyr(I2)-HphVSPh, Mu-Phe-VaIVSPh, Boc-Tic-HphVSPh, Mu-Phe-Ser(OBzl)VSPh, Mu-Leu-HphVSPh, Mu-Tyr(I2)-HphVSPh, Mu-Phe-LysVSPh, Mu-Tic-HphVSPh.

The subject of test [9] is calpain. The test can be described thus: Inhibition (inactivation) of calpain, Suc-Leu-Tyr-AMC. The class given is biochemical. The conditions noted are these: pH 7.5, 5 mM CaCl2, 25° C.; for kobs /[I]*: values marked * (or %); for k/KI (kirr/KI): values without asterisk. Here is the method:
The inhibitors were tested against calpain at 1 or 2% as for the other enzymes. The reaction conditions were 50 mM Tris, pH 7.5, 5 mM CaCl2, 2.5 mM DTT, assayed at 25° C. The substrate was 100 μM Suc-Leu-Tyr-AMC.

Test [10] addresses T3, Cathepsin L from rat liver (Rattus norvegicus, UniProt P07154).
T3 construct: Cathepsin L from rat liver; from tissue; host or cells: rat liver
The test can be described thus: Inhibition of cathepsin L, Z-Phe-Arg-AMC fluorescence progress curves. In kind it is biochemical. The note with it: for pKi: corrected for substrate; for k/KI (kirr/KI): values without asterisk; for k/KI (kirr/KI) / kobs /[I]* (approximate second-order inactivation constant): 25° C., pH 6.2; for kobs /[I]* (approximate second-order inactivation constant): values marked *. The procedure, abridged:
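Progress curves of AMC release (380/460 nm) over at least 3 inactivation half-times were fitted to kobs, reported as kobs/[I] or, via 1/[I] vs 1/kobs, kirr, KI (substrate-corrected) and kirr/KI.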

Test [11] concerns Leishmania donovani amastigote infected mouse peritoneal macrophages. Briefly: In vitro antiprotozoal activity, Leishmania donovani. Also on record: key to percentage inhibition, L. donovani: the term "T" indicates the molecule to have displayed cytotoxicity. In kind it is cell-based. How it is done:
as §1

Chain of cruzain, from T. cruzi (P25779 123-337 limits assumed): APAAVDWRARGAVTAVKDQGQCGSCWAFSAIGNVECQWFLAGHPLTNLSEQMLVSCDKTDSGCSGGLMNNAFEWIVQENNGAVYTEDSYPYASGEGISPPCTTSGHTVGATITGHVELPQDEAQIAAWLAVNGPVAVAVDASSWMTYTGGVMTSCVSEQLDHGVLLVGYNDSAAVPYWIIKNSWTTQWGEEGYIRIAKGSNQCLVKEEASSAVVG
T3 sequence (P07154 114-288 limits assumed): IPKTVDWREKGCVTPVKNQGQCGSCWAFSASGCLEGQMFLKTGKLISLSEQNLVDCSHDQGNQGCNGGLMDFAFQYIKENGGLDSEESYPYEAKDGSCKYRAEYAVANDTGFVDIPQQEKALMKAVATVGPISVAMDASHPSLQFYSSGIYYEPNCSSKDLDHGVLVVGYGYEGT
T3 sequence (P07154 291-334 limits assumed): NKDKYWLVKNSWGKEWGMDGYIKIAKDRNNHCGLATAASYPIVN

As for `Br.N=C(N)NCCC[C@@H](/C=C/S(=O)(=O)c1ccccc1)NC(=O)[C@H](Cc1ccccc1)NC(=O)N1CCOCC1` [Mu-Phe-ArgVSPh.HBr, (S)-(E)-3-(4-morpholinecarbonylphenylalanyl)amino-6-guanidino-1-phenylsulfonyl-1-hexene hydrobromide], the “k/KI (kirr/KI)” value in test [1] is 91,400 M^-1 sec^-1; in [3] it was 2,000,000 M^-1 sec^-1; in test [5] (25° C., pH 6.2), 12,300 M^-1 sec^-1; in test [10], 349,000 M^-1 sec^-1. Moreover, the “percentage inhibition, T. cruzi” value in [2] (3 uM) is on record as 0%; in test [2] (10 uM) it was 0%; in test [2] (30 uM), 0%; in test [2] (90 uM), 5.8%. The values for the kirr in [3], in test [5] and in [10] were 0.031 s⁻¹, 0.15 s⁻¹ and 0.67 s⁻¹, respectively. For the same molecule, the negative logarithm of the Ki (pKi) in test [3] was 7.80; in [5] (corrected for substrate), 4.92; in test [10] it was 5.72. The “percentage inhibition, T. brucei” value in test [4] (3 uM), in [4] (10 uM), in test [4] (30 uM) and in [4] (90 uM) was 0% in each case. The IC50 in test [6] (cells printed in nM) and in [7] (cells printed in nM) was 50 nM throughout. The “effectiveness against T. cruzi in J774 cells” value (“effectiveness against T. cruzi” for short) in test [8] is recorded as “effective”. Further, the “kobs /[I]*” value in [9] is less than 50 M⁻¹ s⁻¹. Further, the “percentage inhibition, L. donovani” value in test [11] (3 uM) was 0%; in test [11] (10 uM), 0%; in test [11] (30 uM) it was 0%; in test [11] (90 uM), 1.3%.
Take “(S)-(E)-3-(4-morpholinecarbonylphenylalanyl)amino-4-methyl-1-phenylsulfonyl-1-pentene [Mu-Phe-ValVSPh]”: in test [1], the “kobs /[I]* (approximate second-order inactivation constant)” value was 28,000 M^-1 sec^-1. Further, the “ED50, T. cruzi” value in test [2] turned out to be 61880 nM. The “percentage inhibition, T. cruzi” value in test [2] (3 uM) is 5.5%; in [2] (10 uM) it was 6.2%; in test [2] (30 uM), 18.9%; in test [2] (90 uM), 74.2%. Further, the kirr in test [3] came out at 0.039 s⁻¹; in [10], 0.19 s⁻¹. The pKi in test [3] is 6.89; in test [10], 5.59. Further, the “k/KI (kirr/KI)” value in test [3] is 290,000 M^-1 sec^-1; in [10] it was 74,000 M^-1 sec^-1. In addition, in test [4], the “ED50, T. brucei” value is 13850 nM. For the same molecule, the “percentage inhibition, T. brucei” value in test [4] (1 uM) amounted to 11.9%; in test [4] (3 uM), 13.5%; in test [4] (10 uM) it was 35.4%; in test [4] (30 uM) it was 72.7%; in test [4] (90 uM), 100%. The IC50 in test [6] (cells printed in μM) and in test [7] (cells printed in μM) was 1000 nM in each case. In addition, the “effectiveness against T. cruzi” value in [8] is reported as “effective”. Further, the “kobs /[I]*” value in test [9] was found to be 180 M⁻¹ s⁻¹. Moreover, the “percentage inhibition, L. donovani” value in test [11] (3 uM) is on record as 100%; in [11] (10 uM), 100%; in test [11] (30 uM), 100%; in test [11] (90 uM) it was “T”.
Regarding “(S)-(E)-3-[4-tert-butoxycarbonyl-(3,5-diiodotyrosyl)]-amino-5-phenyl-1-phenylsulfonyl-1-pentene [Boc-Tyr(I2)-HphVSPh]”, the “kobs /[I]* (approximate second-order inactivation constant)” value in test [1] is 280,000 M^-1 sec^-1; in test [3], 210,000 M^-1 sec^-1; in [5] (values marked *, 25° C., pH 6.2), 1400 M⁻¹ s⁻¹; in [10] it was 105,000 M^-1 sec^-1. In addition, in test [8], the “effectiveness against T. cruzi” value was “effective”. Besides, in test [9], the “k/KI (kirr/KI)” value was found to be 0 M⁻¹ s⁻¹.
On to “(S)-(E)-Benzyl 4-(4-morpholinecarbonylphenylalanyl)amino-6-phenyl-2-hexenamide [Mu-Phe-HphVAMBzl]”, for which the “kobs /[I]* (approximate second-order inactivation constant)” value in [1] is 70,200 M^-1 sec^-1; in [3], 10,800 M^-1 sec^-1; in test [10] it was 2800 M⁻¹ s⁻¹. Moreover, the “percentage inhibition, T. cruzi” value in test [2] (3 uM) was found to be 0%; in test [2] (10 uM) it was 0%; in test [2] (30 uM), 0%; in test [2] (90 uM) it was 5.83%. In addition, the “percentage inhibition, T. brucei” value in [4] (3 uM), in test [4] (10 uM), in [4] (30 uM) and in test [4] (90 uM) was 0% throughout. Further, in [5] (25° C., pH 6.2), the “k/KI (kirr/KI)” value is less than 100 M⁻¹ s⁻¹. The IC50 in [6] (cells printed in nM) worked out at 200 nM; in test [7] (cells printed in μM) it was 2000 nM. In [9], the “kobs /[I]*” value was less than 50 M⁻¹ s⁻¹. Moreover, the “percentage inhibition, L. donovani” value in test [11] (3 uM) was found to be 0%; in test [11] (10 uM), 0%; in [11] (30 uM), 14.2%; in test [11] (90 uM), 23.3%.
For the molecule “(S,S)-(E)-3-[4-morpholinecarbonyl-(1,2,3,4-tetrahydro-3-isoquinoline-carbonyl)]amino-5-phenyl-1-phenylsulfonyl-1-pentene [Mu-Tic-HphVSPh]”, the “k/KI (kirr/KI)” value in test [1] was 0 M⁻¹ s⁻¹; in test [5] (25° C., pH 6.2), 0 M⁻¹ s⁻¹; in test [9] it was 0 M⁻¹ s⁻¹. Moreover, the “kobs /[I]* (approximate second-order inactivation constant)” value in test [3] is on record as 630,000 M^-1 sec^-1; in test [10], 12,600 M^-1 sec^-1. Further, in [8], the “effectiveness against T. cruzi” value is “effective”.
Take “(S,S)-(E)-3-[tert-butoxycarbonyl-(1,2,3,4-tetrahydro-3-isoquinolinecarbonyl)]-amino-5-phenyl-1-phenylsulfonyl-1-pentene [Boc-Tic-HphVSPh]”: the “k/KI (kirr/KI)” value in test [1] was 30,000 M^-1 sec^-1; in [3], 0 M⁻¹ s⁻¹; in test [9], 0 M⁻¹ s⁻¹; in test [10] it was 0 M⁻¹ s⁻¹. Further, the “effectiveness against T. cruzi” value in test [8] is reported as “effective”.
